Experimental data as given in ChEMBL document CHEMBL5625210, “5-Cyano substituted diarylpyridines as potent HIV-1 NNRTIs: Rational design, synthesis, and activity evaluation” (Eur J Med Chem, 2023).

What was measured:
[1] = test system: Human immunodeficiency virus 2; assay: Antiviral activity against wild type HIV-2 ROD infected in human MT4 cells assessed as protection against virus-induced cytopathic effect incubated for 5 days by MTT assay; type: functional, organism-based; settings: Human immunodeficiency virus 2, ROD, MT4, 120 h
[2] = test system: Human immunodeficiency virus 1; assay: Antiviral activity against wild type HIV-1 IIIB infected in human MT4 cells assessed as protection against virus-induced cytopathic effect incubated for 5 days by MTT assay; type: functional, organism-based; settings: Human immunodeficiency virus 1, IIIB, MT4, 120 h
[3] = Cytotoxicity against human MT4 cells assessed as reduction in cell viability incubated for 5 days by MTT assay; type: toxicity, cell-based; settings: time 5 day
[4] = test system: Human immunodeficiency virus 1; assay: Antiviral activity against HIV-1 […] mutant infected in human MT4 cells assessed as protection against virus-induced cytopathic effect incubated for 5 days by MTT assay; type: functional, organism-based; settings: Human immunodeficiency virus 1, MT4, 120 h
[5] = test system: Human immunodeficiency virus 1; assay: Antiviral activity against HIV-1 K103N mutant infected in human MT4 cells assessed as protection against virus-induced cytopathic effect incubated for 5 days by MTT assay; type: functional, organism-based; settings: Human immunodeficiency virus 1, MT4, 120 h
[6] = test system: Human immunodeficiency virus 1; assay: Antiviral activity against HIV-1 Y181C mutant infected in human MT4 cells assessed as protection against virus-induced cytopathic effect incubated for 5 days by MTT assay; type: functional, organism-based; settings: Human immunodeficiency virus 1, MT4, 120 h
[7] = test system: Human immunodeficiency virus 1; assay: Antiviral activity against HIV-1 Y188L mutant infected in human MT4 cells assessed as protection against virus-induced cytopathic effect incubated for 5 days by MTT assay; type: functional, organism-based; settings: Human immunodeficiency virus 1, MT4, 120 h
[8] = test system: Human immunodeficiency virus 1; assay: Antiviral activity against HIV-1 E138K mutant infected in human MT4 cells assessed as protection against virus-induced cytopathic effect incubated for 5 days by MTT assay; type: functional, organism-based; settings: Human immunodeficiency virus 1, MT4, 120 h
[9] = test system: Human immunodeficiency virus 1; assay: Antiviral activity against HIV-1 F227L/V106A mutant infected in human MT4 cells assessed as protection against virus-induced cytopathic effect incubated for 5 days by MTT assay; type: functional, organism-based; settings: Human immunodeficiency virus 1, MT4, 120 h
[10] = in vitro; settings: human, MT4 cells
Description: Selectivity index, ratio of CC50 for cytotoxicity against human MT4 cells to EC50 for antiviral activity against wild type HIV-1 IIIB infected in human MT4 cells

[11] = test system: Human immunodeficiency virus 1; assay: microbe, parasite or virus in culture; settings: Human immunodeficiency virus 1, MT4, 120 h
Description: Antiviral activity against HIV-1 RES056 mutant infected in human MT4 cells assessed as protection against virus-induced cytopathic effect incubated for 5 days by MTT assay

[12] = biological target: Human immunodeficiency virus type 1 reverse transcriptase (Human immunodeficiency virus 1, UniProt Q72547); assay: Inhibition of wild type HIV-1 reverse transcriptase assessed as inhibition of biotin-dUTP incorporation using ABTS as substrate incubated for 1 hrs by ELISA analysis

Row | SMILES | EC50 [1] [nM] | EC50 [2] [nM] | CC50 at 120 h [3] [nM] | EC50 [4] [nM] | EC50 [5] [nM] | EC50 [6] [nM] | EC50 [7] [nM] | EC50 [8] [nM] | EC50 [9] [nM] | selectivity ratio [10] | EC50 [11] [nM] | IC50 [12] [nM]
1 | Cc1cn([C@@H]2C[C@@H](N=[N+]=[N-])[C@H](CO)O2)c(=O)[nH]c1=O | 0.036 | 30 | > 7480 | 10.5 | 29.6 | 22.1 | 21 | 23.6 | 37.8 | > 250 | 28.8 | –
2 | Cc1cc(C#N)cc(C)c1Oc1nc(Nc2ccc(C#N)cc2)nc(N)c1Br [ETRAVIRINE] | – | – | > 4600 | 4.6 | 3.45 | 8.96 | 18.4 | 4.82 | – | – | 20.2 | –
3 | Cc1cc(C#N)cc(C)c1Oc1nc(Nc2ccc(C#N)cc2)c(C#N)cc1Cl | > 240 | 28.7 | 240000 | – | – | – | – | – | – | 8340 | – | 153
4 | Cc1cc(C#N)cc(C)c1Oc1nc(NC2CCN(Cc3ccc(C(N)=O)cc3)CC2)c(C#N)cc1F | > 24.5 | 6.02 | 24100 | 100 | 44.1 | 84.2 | 227 | 26.1 | 347 | 4010 | 3590 | 303
5 | Cc1cc(C#N)cc(C)c1Oc1nc(NC2CCN(Cc3ccc(S(N)(=O)=O)cc3)CC2)c(C#N)cc1Cl | > 22.6 | 32.7 | 22600 | – | – | – | – | – | – | 691 | – | 466
6 | Cc1cc(C#N)cc(C)c1Oc1nc(Nc2ccc(C#N)c(F)c2)c(C#N)cc1F | > 218 | 10.4 | 218000 | 316 | 540 | 1930 | 16700 | 141 | 710 | 20900 | > 218000 | 143
7 | Cc1cc(C#N)cc(C)c1Oc1nc(NC2CCN(Cc3ccc(S(C)(=O)=O)cc3)CC2)c(C#N)cc1F | > 27 | 5.62 | 27500 | 22.5 | 9.37 | 28.1 | 73.1 | 18.7 | 67.5 | 4890 | 171 | 341
8 | Cc1cc(C#N)cc(C)c1Oc1nc(NC2CCN(Cc3ccc(S(C)(=O)=O)cc3)CC2)c(C#N)cc1Cl | > 227 | 21.8 | > 227000 | – | – | – | – | – | – | > 10400 | – | 449
9 | Cc1cc(C#N)cc(C)c1Oc1nc(NC2CCN(Cc3ccc(S(N)(=O)=O)cc3)CC2)c(C#N)cc1F | > 25.2 | 11.2 | 25200 | 43 | 16.8 | 44.9 | 157 | 52.4 | 234 | 2250 | 260 | 292
10 | Cc1cc(C#N)cc(C)c1Oc1nc(Nc2ccc(C#N)c(C#N)c2)c(C#N)cc1F | > 306 | 26.9 | > 306000 | – | – | – | – | – | – | > 11400 | – | 230
11 | Cc1cc(C#N)cc(C)c1Oc1ccc(C#N)c(NC2CCN(Cc3ccc(C(N)=O)cc3)CC2)n1 | > 28.6 | 8.32 | 28600 | 318 | 110 | 110 | 348 | 50 | 1020 | 3440 | 4250 | 256
12 | Cc1cc(C#N)cc(C)c1Oc1ccc(C#N)c(NC2CCN(Cc3ccc(S(N)(=O)=O)cc3)CC2)n1 | > 21.8 | 3.87 | 21800 | 73.6 | 19.4 | 36.8 | 114 | 19.4 | 194 | 5630 | 2780 | 205
13 | Cc1cc(C#N)cc(C)c1Oc1nc(NC2CCN(Cc3ccc(C(N)=O)cc3)CC2)c(C#N)cc1Cl | > 154 | 5.83 | 154000 | 66 | 31.1 | 40.8 | 221 | 33 | 357 | 26500 | 2440 | 402
14 | Cc1cc(C#N)cc(C)c1Oc1ccc(C#N)c(Nc2ccc(CN3CCN(S(=O)(=O)N(C)C)CC3)cc2)n1 | > 5.17 | 197 | 5170 | – | – | – | – | – | – | 26 | – | 1550
15 | O=C1Nc2ccc(Cl)cc2[C@@](C#CC2CC2)(C(F)(F)F)O1 [EFAVIRENZ] | – | 2.53 | > 6340 | 31.8 | 114 | 6.34 | 355 | 6.34 | 890 | – | – | –
16 | Cc1cc(C#N)cc(C)c1Oc1nc(Nc2ccc(CN3CCN(S(C)(=O)=O)CC3)cc2)c(C#N)cc1F | > 213 | 44.9 | 213000 | – | – | – | – | – | – | 4740 | – | 294
17 | Cc1cc(C#N)cc(C)c1Oc1nc(Nc2ccc(CN3CCN(S(=O)(=O)N(C)C)CC3)cc2)c(C#N)cc1F | > 149 | 200 | 149000 | – | – | – | – | – | – | 744 | – | 2600
18 | Cc1cc(C#N)cc(C)c1Oc1ccc(C#N)c(Nc2ccc(C#N)c(F)c2)n1 | > 27.3 | 1460 | 27300 | – | – | – | – | – | – | 19 | – | 12000
19 | Cc1cc(C#N)cc(C)c1Oc1nc(Nc2ccc(C#N)cc2)c(C#N)cc1F | > 311 | 7.47 | > 62300 | 1140 | 2040 | 22400 | > 62300 | 341 | ≥ 17400 | > 8330 | > 62300 | 112
20 | Cc1cc(C#N)cc(C)c1Oc1nc(Nc2ccc(C#N)c(C#N)c2)c(C#N)cc1Cl | > 202 | 14.1 | 202000 | 313 | 233 | 1120 | > 202000 | 287 | 2250 | 14300 | > 202000 | 144
21 | Cc1cc(C#N)cc(C)c1Oc1ccc(C#N)c(Nc2ccc(C#N)c(C#N)c2)n1 | > 320 | 115 | > 320000 | – | – | – | – | – | – | > 2780 | – | 697
22 | Cc1cc(C#N)cc(C)c1Oc1nc(Nc2ccc(CN3CCN(S(C)(=O)=O)CC3)cc2)c(C#N)cc1Cl | > 208 | 14.5 | 208000 | 238 | 633 | 555 | 2960 | 131 | 276 | 14300 | > 208000 | 392
23 | Cc1cc(C#N)cc(C)c1Oc1ccc(C#N)c(Nc2ccc(CN3CCN(S(C)(=O)=O)CC3)cc2)n1 | > 18 | 40.7 | 18000 | – | – | – | – | – | – | 444 | – | 277
24 | Cc1cc(C#N)cc(C)c1Oc1nc(Nc2ccc(CN3CCN(S(=O)(=O)N(C)C)CC3)cc2)c(C#N)cc1Cl | > 178 | 69 | 178000 | – | – | – | – | – | – | 2580 | – | 686
25 | Cc1ccnc2c1NC(=O)c1cccnc1N2C1CC1 [NEVIRAPINE] | > 9.51 | – | > 9510 | 1990 | – | 4210 | > 9510 | 76.1 | > 9510 | – | > 9510 | –
26 | Cc1cc(C#N)cc(C)c1Oc1ccc(C#N)c(NC2CCN(Cc3ccc(S(C)(=O)=O)cc3)CC2)n1 | > 19.1 | 5.82 | 19100 | 136 | 34.9 | 38.8 | 244 | 211 | 182 | 3290 | 7180 | 429
27 | Cc1cc(C#N)cc(C)c1Oc1nc(Nc2ccc(C#N)c(F)c2)c(C#N)cc1Cl | > 282 | 25 | 282000 | – | – | – | – | – | – | 11300 | – | 98
28 | Cc1cc(C#N)cc(C)c1Oc1ccc(C#N)c(Nc2ccc(C#N)cc2)n1 | > 326 | 7.82 | > 65200 | 123 | 446 | 1540 | ≥ 33000 | 54.8 | 10900 | > 8330 | > 65200 | 94
